{
  "source": "patent US20130065958A1",
  "about": "“METHODS FOR DISINFECTING OR STERILIZING ARTICLES” (priority 2011, published 2013)",
  "test_system": "Bacillus atrophaeus ATCC 9372 spores",
  "details": "3 drops, overnight (15 hours) at 35 C",
  "protocol": "Before sealing, the inside surface of the bottle cap (liner removed) or its foam liner had been inoculated with a 10 μL droplet of Bacillus atrophaeus ATCC 9372 spores dried down onto the cap or liner surface. Bacillus atrophaeus ATCC 9372 spores are known to be of relatively high resistance to peroxide disinfection and are a recommended (for example, the U.S. Pharmacopeia) resistant organism for disinfection studies using chemicals (such as peroxide or ethylene oxide) or dry heat.",
  "note": "Values joined by “and” are separate entries in the source; they are usually repeats but may differ in a detail not shown here. Equal entries are not always repeated. Where two headings read alike, the source gives them in different places.",
  "data": [
    {"smiles": "OO", "note": "[3% hydrogen peroxide, hydrogen peroxide]", "values": [
      {"measurement": "CFU Recovered", "setting": "inoculated on cap", "result": "425000 CFU and 475000 CFU"},
      {"measurement": "Log Reduction", "setting": "inoculated on cap", "result": "1.2 and 1.1"},
      {"measurement": "CFU Recovered", "setting": "inoculated on liner", "result": 830000, "unit": "CFU"},
      {"measurement": "Log Reduction", "setting": "inoculated on liner", "result": 0.4}
    ]}
  ]
}
